What was measured:
[1] = system: KYSE-410 (Esophageal Squamous Cell Carcinoma); assay: combination Emax (second highest fraction inhibited in the dose matrix, 72 h); higher = more inhibition; extreme values may be limits of the assay
Procedure, shortened: (§1)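 Cell lines in DMEM/F12 or RPMI with 10% FBS were plated in 1536-well plates, held 24 hours at 37°C, 5% CO2, then given two-drug dose matrices for 72 hours (DMSO typically 0.2%). Viability was read by CellTiter-Glo 2.0 luminescence and scaled as inhibition from 0 (vehicle wells) to 1 (blank wells). Combination Emax is the second-highest inhibition in the matrix; Bliss excess is observed combination effect minus expected EA + EB − EA·EB, EA and EB being single-agent effects.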

[2] = system: NCI-H747 (Colorectal Carcinoma); assay: as above
Procedure, shortened: as §1

[3] = system: UMC-11 (Other Solid Carcinomas); assay: as above
Procedure, shortened: as §1

[4] = system: OVCAR-8 (Ovarian Carcinoma); assay: as above
Procedure, shortened: as §1

[5] = system: LB771-HNC (Head and Neck Carcinoma); assay: as above
Procedure, shortened: as §1

[6] = system: COLO-829 (Melanoma); assay: as above
Procedure, shortened: as §1

[7] = system: SW626 (Colorectal Carcinoma); assay: as above
Procedure, shortened: as §1

[8] = system: MHH-PREB-1 (B-Cell Non-Hodgkin's Lymphoma); assay: as above
Procedure, shortened: as §1

[9] = system: CAL-51 (Breast Carcinoma); assay: as above
Procedure, shortened: as §1

[10] = system: 639-V (Bladder Carcinoma); assay: as above
Procedure, shortened: as §1

[11] = system: TE-4 (Esophageal Squamous Cell Carcinoma); assay: as above
Procedure, shortened: as §1

[12] = system: HCC-15 (Squamous Cell Lung Carcinoma); assay: as above
Procedure, shortened: as §1

[13] = system: KARPAS-231 (B-Cell Non-Hodgkin's Lymphoma); assay: as above
Procedure, shortened: as §1

[14] = system: KYSE-410 (Esophageal Squamous Cell Carcinoma); assay: Bliss excess, mean over the matrix (fraction); higher = more synergy
Procedure, shortened: as §1

[15] = system: NCI-H747 (Colorectal Carcinoma); assay: as above
Procedure, shortened: as §1

[16] = system: UMC-11 (Other Solid Carcinomas); assay: as above
Procedure, shortened: as §1

[17] = system: OVCAR-8 (Ovarian Carcinoma); assay: as above
Procedure, shortened: as §1

[18] = system: LB771-HNC (Head and Neck Carcinoma); assay: as above
Procedure, shortened: as §1

[19] = system: COLO-829 (Melanoma); assay: as above
Procedure, shortened: as §1

[20] = system: SW626 (Colorectal Carcinoma); assay: as above
Procedure, shortened: as §1

[21] = system: MHH-PREB-1 (B-Cell Non-Hodgkin's Lymphoma); assay: as above
Procedure, shortened: as §1

[22] = system: CAL-51 (Breast Carcinoma); assay: as above
Procedure, shortened: as §1

[23] = system: 639-V (Bladder Carcinoma); assay: as above
Procedure, shortened: as §1

[24] = system: TE-4 (Esophageal Squamous Cell Carcinoma); assay: as above
Procedure, shortened: as §1

[25] = system: HCC-15 (Squamous Cell Lung Carcinoma); assay: as above
Procedure, shortened: as §1

[26] = system: KARPAS-231 (B-Cell Non-Hodgkin's Lymphoma); assay: as above
Procedure, shortened: as §1
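Throughout, for Bliss excess, mean over the matrix: after 72 h of two-drug dosing.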

| Compound | combination Emax [1] | combination Emax [2] | combination Emax [3] | combination Emax [4] | combination Emax [5] | combination Emax [6] | combination Emax [7] | combination Emax [8] | combination Emax [9] | combination Emax [10] | combination Emax [11] | combination Emax [12] | combination Emax [13] | Bliss excess [14] | Bliss excess [15] | Bliss excess [16] | Bliss excess [17] | Bliss excess [18] | Bliss excess [19] | Bliss excess [20] | Bliss excess [21] | Bliss excess [22] | Bliss excess [23] | Bliss excess [24] | Bliss excess [25] | Bliss excess [26] |
| --- | --- | --- | --- | --- | --- | --- | --- | --- | --- | --- | --- | --- | --- | --- | --- | --- | --- | --- | --- | --- | --- | --- | --- | --- | --- | --- |
| CC(=O)c1c(C)c2cnc(Nc3ccc(N4CCNCC4)cn3)nc2n(C2CCCC2)c1=O [Palbociclib] + CN(CC[C@H](CSC1=CC=CC=C1)NC2=C(C=C(C=C2)S(=O)(=O)NC(=O)C3=CC=C(C=C3)N4CCC(CC4)[C@H](C5=CC=CC=C5C6=CC=C(C=C6)Cl)O)S(=O)(=O)C(F)(F)F)CCO [AZD4320] (first compound max 10 µM, 7x7, partner max 1 µM) | 0.41 | 0.555 | 0.631 | 0.173 | 0.206 | 0.33 | 0.662 | 0.492 | 0.479 | 0.198 | 0.341 | 0.982 | 0.98 | -0.0667 | -0.0425 | 0.0057 | -0.0261 | -0.0584 | -0.117 | -0.0921 | -0.041 | -0.123 | -0.124 | 0.001 | -0.0553 | -0.0645 |
| COc1nnc2ccc(N3CCC(c4ccc(OCCN5CCN(C)C(=O)[C@H]5C)cc4)CC3)nn12 [AZD5153] + CN(CC[C@H](CSC1=CC=CC=C1)NC2=C(C=C(C=C2)S(=O)(=O)NC(=O)C3=CC=C(C=C3)N4CCC(CC4)[C@H](C5=CC=CC=C5C6=CC=C(C=C6)Cl)O)S(=O)(=O)C(F)(F)F)CCO [AZD4320] (first compound max 1 µM, 7x7, partner max 1 µM) | 0.259 | 0.728 | 0.848 | 0.733 | 0.524 | 0.143 | 0.777 | 0.47 | 0.843 | 0.606 | 0.336 | 0.994 | 1 | 0.0046 | -0.0055 | 0.0086 | 0.0081 | 0.0273 | -0.0466 | 0.0477 | 0.0343 | 0.0267 | 0.034 | 0.0449 | -0.0023 | -0.159 |
| C[C@@H](c1ccc2nccn2c1)n1nnc2ncc(-c3cnn(C)c3)nc21 [Savolitinib] + CN(CC[C@H](CSC1=CC=CC=C1)NC2=C(C=C(C=C2)S(=O)(=O)NC(=O)C3=CC=C(C=C3)N4CCC(CC4)[C@H](C5=CC=CC=C5C6=CC=C(C=C6)Cl)O)S(=O)(=O)C(F)(F)F)CCO [AZD4320] (first compound max 1 µM, 7x7, partner max 1 µM) | 0.174 | 0.208 | 0.401 | 0.0738 | 0.154 | 0.278 | 0.582 | 0.139 | 0.207 | 0.172 | 0.145 | 0.916 | 0.907 | -0.0588 | -0.0808 | 0.0211 | -0.0373 | -0.042 | -0.0397 | -0.108 | -0.0481 | -0.0375 | -0.0957 | -0.0244 | -0.0203 | -0.0299 |
